Laboratory results as given in the NIST ThermoML archive (doi:10.1016/j.tca.2012.01.013).

Experiments:
[1] = refractive index (Na D-line) (dimensionless); xn = mol fraction of the nth substance listed; details: 101 kPa, Liquid, Standard Abbe refractometry
[2] = xn = mol fraction of the nth substance listed; details: 101 kPa, Liquid, Vibrating tube method

COC(=O)c1ccccc1C(=O)OC [dimethyl 1,2-benzenedicarboxylate] + CCCCO
Details	mass density, [2] [kg/m3]	refractive index, [1]
288.15 K, x1 = 0.0997	877.193	1.42114
288.15 K, x1 = 0.1998	932.375	1.43796
288.15 K, x1 = 0.2994	980.153	1.45268
288.15 K, x1 = 0.3999	1022.54	1.4657
288.15 K, x1 = 0.5	1059.92	1.47709
288.15 K, x1 = 0.5985	1092.78	1.48663
288.15 K, x1 = 0.7001	1123.06	1.49584
288.15 K, x1 = 0.8016	1150.29	1.50398
288.15 K, x1 = 0.9002	1174.24	1.51118
288.15 K, x1 = 1	1196.26	1.51779
293.15 K, x1 = 0.0997	873.146	1.41907
293.15 K, x1 = 0.1998	928.143	1.43584
293.15 K, x1 = 0.2994	975.792	1.45052
293.15 K, x1 = 0.3999	1018.08	1.46353
293.15 K, x1 = 0.5	1055.37	1.47491
293.15 K, x1 = 0.5985	1088.17	1.48446
293.15 K, x1 = 0.7001	1118.42	1.49365
293.15 K, x1 = 0.8016	1145.63	1.50183
293.15 K, x1 = 0.9002	1169.57	1.50903
293.15 K, x1 = 1	1191.59	1.51565
298.15 K, x1 = 0.0997	869.077	1.41699
298.15 K, x1 = 0.1998	923.892	1.43374
298.15 K, x1 = 0.2994	971.414	1.44835
298.15 K, x1 = 0.3999	1013.6	1.46136
298.15 K, x1 = 0.5	1050.83	1.47274
298.15 K, x1 = 0.5985	1083.57	1.48227
298.15 K, x1 = 0.7001	1113.78	1.49148
298.15 K, x1 = 0.8016	1140.96	1.49966
298.15 K, x1 = 0.9002	1164.91	1.50689
298.15 K, x1 = 1	1186.93	1.51354
303.15 K, x1 = 0.0997	864.981	1.41489
303.15 K, x1 = 0.1998	919.619	1.43158
303.15 K, x1 = 0.2994	967.016	1.44618
303.15 K, x1 = 0.3999	1009.11	1.45918
303.15 K, x1 = 0.5	1046.26	1.47057
303.15 K, x1 = 0.5985	1078.96	1.4801
303.15 K, x1 = 0.7001	1109.14	1.48929
303.15 K, x1 = 0.8016	1136.31	1.49753
303.15 K, x1 = 0.9002	1160.25	1.50474
303.15 K, x1 = 1	1182.28	1.51146
308.15 K, x1 = 0.0997	860.864	1.41266
308.15 K, x1 = 0.1998	915.319	1.42932
308.15 K, x1 = 0.2994	962.593	1.44399
308.15 K, x1 = 0.3999	1004.6	1.45694
308.15 K, x1 = 0.5	1041.69	1.46834
308.15 K, x1 = 0.5985	1074.34	1.47795
308.15 K, x1 = 0.7001	1104.49	1.4871
308.15 K, x1 = 0.8016	1131.65	1.49537
308.15 K, x1 = 0.9002	1155.59	1.50263
308.15 K, x1 = 1	1177.62	1.50943
313.15 K, x1 = 0.0997	856.701	1.41048
313.15 K, x1 = 0.1998	910.989	1.42712
313.15 K, x1 = 0.2994	958.146	1.4417
313.15 K, x1 = 0.3999	1000.06	1.45469
313.15 K, x1 = 0.5	1037.11	1.4662
313.15 K, x1 = 0.5985	1069.7	1.47585
313.15 K, x1 = 0.7001	1099.84	1.48507
313.15 K, x1 = 0.8016	1126.98	1.4933
313.15 K, x1 = 0.9002	1150.93	1.50061
313.15 K, x1 = 1	1172.97	1.50736
318.15 K, x1 = 0.0997	852.519	1.40835
318.15 K, x1 = 0.1998	906.628	1.42501
318.15 K, x1 = 0.2994	953.674	1.43965
318.15 K, x1 = 0.3999	995.51	1.45257
318.15 K, x1 = 0.5	1032.5	1.46395
318.15 K, x1 = 0.5985	1065.06	1.47376
318.15 K, x1 = 0.7001	1095.18	1.48299
318.15 K, x1 = 0.8016	1122.32	1.49121
318.15 K, x1 = 0.9002	1146.27	1.49853
318.15 K, x1 = 1	1168.32	1.50524
323.15 K, x1 = 0.0997	848.279	1.40609
323.15 K, x1 = 0.1998	902.232	1.42274
323.15 K, x1 = 0.2994	949.172	1.4375
323.15 K, x1 = 0.3999	990.935	1.45024
323.15 K, x1 = 0.5	1027.87	1.46165
323.15 K, x1 = 0.5985	1060.4	1.47156
323.15 K, x1 = 0.7001	1090.51	1.48083
323.15 K, x1 = 0.8016	1117.65	1.48906
323.15 K, x1 = 0.9002	1141.61	1.4964
323.15 K, x1 = 1	1163.67	1.5032
